{
  "source": "patent US7476764B2",
  "about": "“Phenylcarboxyamides as beta-secretase inhibitors” (Bristol-Myers Squibb Company, priority 2005, dated 2009)",
  "biological_target": "T1, BACE1 enzyme (Homo sapiens, UniProt P56817)",
  "T1 construct": "The HEK293-9B.A1 cell line, which overexpresses the BACE1 enzyme, was derived from HEK293 cells; endogenous in cells; washed 48,000 x g pellet of the cell homogenate",
  "T1 sequence (P56817 46-501)": "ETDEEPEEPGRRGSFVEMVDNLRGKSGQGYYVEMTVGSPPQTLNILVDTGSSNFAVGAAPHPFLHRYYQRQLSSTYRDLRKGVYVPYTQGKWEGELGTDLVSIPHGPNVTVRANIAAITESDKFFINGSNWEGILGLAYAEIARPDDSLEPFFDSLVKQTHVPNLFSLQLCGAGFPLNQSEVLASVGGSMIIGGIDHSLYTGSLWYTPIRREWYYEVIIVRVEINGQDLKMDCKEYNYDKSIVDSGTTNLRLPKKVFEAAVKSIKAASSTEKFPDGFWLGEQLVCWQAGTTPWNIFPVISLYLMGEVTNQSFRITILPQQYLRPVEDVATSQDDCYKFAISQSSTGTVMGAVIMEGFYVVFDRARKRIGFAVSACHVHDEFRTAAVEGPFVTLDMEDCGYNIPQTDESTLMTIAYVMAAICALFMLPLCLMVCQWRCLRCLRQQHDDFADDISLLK",
  "assay": "Radioligand displacement assay with a radiolabeled BACE inhibitor on HEK293-9B.A1 cell homogenate",
  "type": "binding",
  "settings": "displacement of 1 nM tritiated radioligand, HEK293-9B.A1 homogenate, pH 5.0, 1.5 hr at 25° C.; read-out: Activity Rating (activity based on IC50 values)",
  "experimental": "Radioligand displacement assays with a radiolabeled BACE inhibitor (WO 2004 013098, compound 3, where the methoxy group is substituted for C(^3H)3) were carried out using standard methods (Keen, M. (1999) in Receptor Binding Techniques (Walker, J. M. ed) p. 106 Humana Press, Totowa, N.J.). The HEK293-9B.A1 cell line, which overexpresses the BACE1 enzyme, was derived from HEK293 cells (Simmons, N. L. (1990) A cultured human renal epitheloid cell line responsive to vasoactive intestinal peptide. Exp. Physiol. 75:309-19.) by RAGE™ (Harrington, J. J. et al. (2001) Creation of genome-wide protein expression libraries using random activation of gene expression. Nat. Biotechnol. 19:440-5; U.S. Pat. Nos. 6,410,266 and 6,361,972). T225 flask cultures of HEK293-9B.A1 were grown to 80% confluency in DMEM supplemented with 2 mM L-glutamine, 10 μg/ml penicillin, 10 μg/ml streptomycin, 3 μg/ml puromycin, 100 nM methotrexate, and 10% fetal bovine serum (Invitrogen, Carlsbad, Calif.), harvested, and resuspended at 2×10^8 cells per 10 ml of lysis buffer consisting of 50 mM HEPES pH 7.0 containing a protease inhibitor cocktail of AEBSF 104 μM, aprotinin 80 nM, leupeptin 2 μM, bestatin 4 μM, pepstatin A 1.5 μM, and E-64 1.4 μM (0.1% of protease inhibitor cocktail P8340, Sigma-Aldrich, St. Louis, Mo.) at 4° C. The resuspended cells were homogenized using a Polytron (Brinkman, Westbury, N.Y.) at setting 6 for 10 sec., then centrifuged at 48,000×g for 10 min. The resulting pellet was washed by repeating the resuspension, homogenization and centrifugation steps. The final pellet was resuspended in buffer at 4° C. to yield a total protein concentration of 5 mg/ml, then aliquots were frozen in liquid nitrogen for further storage at −70° C. Immediately before carrying out a binding assay, an aliquot of cell homogenate was thawed and diluted to a concentration of 100 μg/ml in assay buffer consisting of 50 mM HEPES pH 5.0 and 0.1% CHAPSO. Assays were initiated in polypropylene 96-well plates (Costar, Cambridge, Mass.) by the addition of 200 μl of cell homogenate to 50 μl of assay buffer containing 1 nM radioligand (WO 2004 013098, compound 3, where the methoxy group is substituted for C(^3H)3: 80 Ci/mMol) and various concentrations of unlabelled compounds, and incubated for 1.5 hr. at 25° C. Separation of bound from free radioligand was by filtration on GFF glass fiber filters (Innotech Biosystems International, Lansing, Mich.) using an Innotech cell harvester.",
  "note": "Counter-ions that a name gives are not always drawn.",
  "data": [
    {"smiles": "COc1cccc(CNC[C@@H](O)[C@H](Cc2cc(F)cc(F)c2)NC(=O)c2cc(C(C)O)cc(N3CCCCS3(=O)=O)c2)c1", "note": "(stereo partly drawn) [Example 23, N-[(1S,2R)-1-(3,5-difluoro-benzyl)-2-hydroxy-3-(3-methoxy-benzylamino)-propyl]-3-(1,1-dioxo-1λ^6-[1,2]thiazinan-2-yl)-5-(1-hydroxy-ethyl)-benzamide TFA salt]", "values": [
      {"measurement": "IC50", "result": "< 100", "unit": "nM"}
    ]},
    {"smiles": "COc1cccc(CNC[C@@H](O)[C@H](Cc2cc(F)cc(F)c2)NC(=O)c2cc(C(C)=O)cc(N(C)S(C)(=O)=O)c2)c1", "note": "[Example 29, N-((2S,3R)-4-(3-methoxybenzylamino)-1-(3,5-difluorophenyl)-3-hydroxybutan-2-yl)-3-acetyl-5-(N-methylmethan-2-ylsulfonamido)benzamide TFA salt]", "values": [
      {"measurement": "IC50", "result": "100 to 1000", "unit": "nM"}
    ]},
    {"smiles": "COc1cccc(CNC[C@@H](O)[C@H](Cc2cc(F)cc(F)c2)NC(=O)c2cc(C(C)=O)cc(S(C)(=O)=O)c2)c1", "note": "[Example 16, N^1-((2S,3R)-4-(3-methoxybenzylamino)-1-(3,5-difluorophenyl)-3-hydroxybutan-2-yl)-3-acetyl-5-(methylsulfonyl)benzamide TFA salt]", "values": [
      {"measurement": "IC50", "result": "100 to 1000", "unit": "nM"}
    ]},
    {"smiles": "COc1cccc(CNC[C@@H](O)[C@H](Cc2cc(F)cc(F)c2)NC(=O)c2cc(/C(C)=N/OCC(C)C)cc(N(C)S(C)(=O)=O)c2)c1", "note": "[Example 33, N-((2S,3R)-4-(3-methoxybenzylamino)-1-(3,5-difluorophenyl)-3-hydroxybutan-2-yl)-3-((E)-1-(isobutoxyimino)ethyl)-5-(N-methylmethan-2-ylsulfonamido)benzamide TFA salt]", "values": [
      {"measurement": "IC50", "result": "100 to 1000", "unit": "nM"}
    ]},
    {"smiles": "COc1cccc(CNC[C@@H](O)[C@H](Cc2cc(F)cc(F)c2)NC(=O)c2cc(C(C)=O)cc(C(=O)NC(C)c3ccc(F)cc3)c2)c1", "note": "(stereo partly drawn) [Example 47, N^1-((2S,3R)-4-(3-methoxybenzylamino)-1-(3,5-difluorophenyl)-3-hydroxybutan-2-yl)-5-acetyl-N^3-(1-(4-fluorophenyl)ethyl)isophthalamide TFA salt]", "values": [
      {"measurement": "IC50", "result": "< 100", "unit": "nM"}
    ]},
    {"smiles": "COc1cccc(CNC[C@@H](O)[C@H](Cc2cc(F)cc(F)c2)NC(=O)c2cc(/C(C)=N/OCc3ccccc3)cc(N3CCCCS3(=O)=O)c2)c1", "note": "[Example 25, N-[(1S,2R)-1-(3,5-difluoro-benzyl)-2-hydroxy-3-(3-methoxy-benzylamino)-propyl]-3-(1,1-dioxo-1λ^6-[1,2]thiazinan-2-yl)-5-{1-[(E)-benzyloxyimino]-ethyl}-benzamide TFA salt]", "values": [
      {"measurement": "IC50", "result": "< 100", "unit": "nM"}
    ]},
    {"smiles": "CO/N=C(\\C)c1cc(C(=O)N[C@@H](Cc2cc(F)cc(F)c2)[C@H](O)CNCc2cccc(OC)c2)cc(N(c2ccccc2)S(C)(=O)=O)c1", "note": "[Example 38, N-((2S,3R)-4-(3-methoxybenzylamino)-1-(3,5-difluorophenyl)-3-hydroxybutan-2-yl)-3-((E)-1-(methoxyimino)ethyl)-5-(N-phenylmethan-10-ylsulfonamido)benzamide]", "values": [
      {"measurement": "IC50", "result": "< 100", "unit": "nM"}
    ]},
    {"smiles": "COc1cccc(CNC[C@@H](O)[C@H](Cc2cc(F)cc(F)c2)NC(=O)c2cc(/C(C)=N/OCc3ccccc3)cc(N(c3ccccc3)S(C)(=O)=O)c2)c1", "note": "[Example 39, N-((2S,3R)-4-(3-methoxybenzylamino)-1-(3,5-difluorophenyl)-3-hydroxybutan-2-yl)-3-((E)-1-(benzyloxyimino)ethyl)-5-(N-phenylmethan-10-ylsulfonamido)benzamide]", "values": [
      {"measurement": "IC50", "result": "< 100", "unit": "nM"}
    ]},
    {"smiles": "COc1cccc(CNC[C@@H](O)[C@H](Cc2cc(F)cc(F)c2)NC(=O)c2cc(C(=O)NC(C)c3ccc(F)cc3)cc(C(C)O)c2)c1", "note": "(stereo partly drawn) [Example 48, N^1-((2S,3R)-4-(3-methoxybenzylamino)-1-(3,5-difluorophenyl)-3-hydroxybutan-2-yl)-N^3-(1-(4-fluorophenyl)ethyl)-5-(1-hydroxyethyl)isophthal-amide TFA salt]", "values": [
      {"measurement": "IC50", "result": "< 100", "unit": "nM"}
    ]},
    {"smiles": "CCCN(CCC)C(=O)c1cc(C(C)=O)cc(C(=O)N[C@@H](Cc2cc(F)cc(F)c2)[C@H](O)CNCc2cccc(OC)c2)c1", "note": "[Example 1, N^1-((2S,3R)-4-(3-methoxybenzylamino)-1-(3,5-difluorophenyl)-3-hydroxybutan-2-yl)-5-acetyl-N^3,N^3-dipropylisophthalamide TFA salt]", "values": [
      {"measurement": "IC50", "result": "< 100", "unit": "nM"}
    ]},
    {"smiles": "CO/N=C(\\C)c1cc(C(=O)N[C@@H](Cc2cc(F)cc(F)c2)[C@H](O)CNCc2cccc(OC)c2)cc(N(C)S(C)(=O)=O)c1", "note": "[Example 30, N-((2S,3R)-4-(3-methoxybenzylamino)-1-(3,5-difluorophenyl)-3-hydroxybutan-2-yl)-3-((E)-1-(methoxyimino)ethyl)-5-(N-methylmethan-2-ylsulfonamido)benzamide TFA salt]", "values": [
      {"measurement": "IC50", "result": "< 100", "unit": "nM"}
    ]},
    {"smiles": "COc1cccc(CNC[C@@H](O)[C@H](Cc2cc(F)cc(F)c2)NC(=O)c2cc(/C(C)=N/O)cc(N(c3ccccc3)S(C)(=O)=O)c2)c1", "note": "[Example 37, N-((2S,3R)-4-(3-methoxybenzylamino)-1-(3,5-difluorophenyl)-3-hydroxybutan-2-yl)-3-((E)-1-(hydroxyimino)ethyl)-5-(N-phenylmethan-10-ylsulfonamido)benzamide]", "values": [
      {"measurement": "IC50", "result": "< 100", "unit": "nM"}
    ]},
    {"smiles": "C=CCO/N=C(\\C)c1cc(C(=O)N[C@@H](Cc2cc(F)cc(F)c2)[C@H](O)CNCc2cccc(OC)c2)cc(N2CCCCS2(=O)=O)c1", "note": "[Example 28, N-[(1S,2R)-1-(3,5-difluoro-benzyl)-2-hydroxy-3-(3-methoxy-benzylamino)-propyl]-3-(1,1-dioxo-1λ^6-[1,2]thiazinan-2-yl)-5-{1-[(E)-allyloxyimino]-ethyl}-benzamide TFA salt]", "values": [
      {"measurement": "IC50", "result": "< 100", "unit": "nM"}
    ]},
    {"smiles": "CCCN(CCC)C(=O)c1cc(C(=O)N[C@@H](Cc2cc(F)cc(F)c2)[C@H](O)CNCc2cccc(OC)c2)cc(/C(C)=N/O)c1", "note": "[Example 5, N^1-((2S,3R)-4-(3-methoxybenzylamino)-1-(3,5-difluorophenyl)-3-hydroxybutan-2-yl)-5-((E)-1-(hydroxyimino)ethyl)-N^3,N^3-dipropylisophthalamide hydrochloride]", "values": [
      {"measurement": "IC50", "result": "< 100", "unit": "nM"}
    ]},
    {"smiles": "CCCN(C)C(=O)c1cc(C(C)=O)cc(C(=O)N[C@@H](Cc2cc(F)cc(F)c2)[C@H](O)CNCc2cccc(OC)c2)c1", "note": "[Example 8, N^1-((2S,3R)-4-(3-methoxybenzylamino)-1-(3,5-difluorophenyl)-3-hydroxybutan-2-yl)-5-acetyl-N^3-methyl-N^3-propylisophthalamide TFA salt]", "values": [
      {"measurement": "IC50", "result": "< 100", "unit": "nM"}
    ]},
    {"smiles": "CCCO/N=C(\\C)c1cc(C(=O)N[C@@H](Cc2cc(F)cc(F)c2)[C@H](O)CNCc2cccc(OC)c2)cc(S(C)(=O)=O)c1", "note": "[Example 19, N-((2S,3R)-4-(3-methoxybenzylamino)-1-(3,5-difluorophenyl)-3-hydroxybutan-2-yl)-3-(methylsulfonyl)-5-((E)-1-(propoxyimino)ethyl)benzamide TFA salt]", "values": [
      {"measurement": "IC50", "result": "100 to 1000", "unit": "nM"}
    ]},
    {"smiles": "COc1cccc(CNC[C@@H](O)[C@H](Cc2cc(F)cc(F)c2)NC(=O)c2cc(/C(C)=N/OCC(C)C)cc(N(c3ccccc3)S(C)(=O)=O)c2)c1", "note": "[Example 41, N-((2S,3R)-4-(3-methoxybenzylamino)-1-(3,5-difluorophenyl)-3-hydroxybutan-2-yl)-3-((E)-1-(isobutoxyimino)ethyl)-5-(N-phenylmethan-10-ylsulfonamido)benzamide]", "values": [
      {"measurement": "IC50", "result": "100 to 1000", "unit": "nM"}
    ]},
    {"smiles": "CCCO/N=C(\\C)c1cc(C(=O)N[C@@H](Cc2cc(F)cc(F)c2)[C@H](O)CNCc2cccc(OC)c2)cc(C(=O)N(C)CCC)c1", "note": "[Example 14, N^1-((2S,3R)-4-(3-methoxybenzylamino)-1-(3,5-difluorophenyl)-3-hydroxybutan-2-yl)-N^3-methyl-5-((E)-1-(propoxyimino)ethyl)-N^3-propylisophthalamide]", "values": [
      {"measurement": "IC50", "result": "< 100", "unit": "nM"}
    ]},
    {"smiles": "COc1cccc(CNC[C@@H](O)[C@H](Cc2cc(F)cc(F)c2)NC(=O)c2cc(C(C)=O)cc(N3CCCCS3(=O)=O)c2)c1", "note": "[Example 22, N-[(1S,2R)-1-(3,5-difluoro-benzyl)-2-hydroxy-3-(3-methoxy-benzylamino)-propyl]-3-(1,1-dioxo-1λ^6-[1,2]thiazinan-2-yl)-5-acetyl-benzamide TFA salt]", "values": [
      {"measurement": "IC50", "result": "< 100", "unit": "nM"}
    ]},
    {"smiles": "CCCN(C)C(=O)c1cc(C(=O)N[C@@H](Cc2cc(F)cc(F)c2)[C@H](O)CNCc2cccc(OC)c2)cc(/C(C)=N/OCC(C)C)c1", "note": "[Example 12, N^1-((2S,3R)-4-(3-methoxybenzylamino)-1-(3,5-difluorophenyl)-3-hydroxybutan-2-yl)-5-((E)-1-(isobutoxyimino)ethyl)-N^3-methyl-N^3-propylisophthalamide hydrochloride]", "values": [
      {"measurement": "IC50", "result": "< 100", "unit": "nM"}
    ]}
  ]
}
